Patent publication EP0745595A1, “3-(3-Aryloxyphenyl)-1-(substituted methyl)-s-triazine-2,4,6-oxo or thiotrione herbicidal agents” (American Cyanamid Company, priority 1995, dated 1996)

Experiments:
Assay type in all cases: in vivo
[1] = system: ORYZA SATIVA, L. TEBONNET; assay: Postemergence herbicidal evaluation, ORYSAT (Rice, Tebonnet); design: key: 0-9 visual rating scale vs untreated control
Summary of the method: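 Rice (Tebonnet) seedlings raised in jiffy flats for roughly two weeks were sprayed postemergence at 40 psi with compound dispersed in 50/50 acetone/water containing 0.5% TWEEN®20. The plants were then kept on greenhouse benches under standard care and visually scored on a 0-9 scale against a control four to five weeks after treatment.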

[2] = system: GLYCINE MAX(L) MERR. CV. WILLIAMS; assay: Postemergence herbicidal evaluation, GLXMAW (Soybean, Williams); design: key to GLXMAW rating / Herbicidal effect rating, GLXMAW / GLXMAW: 0-9 visual rating scale vs untreated control
Summary of the method: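 Soybean seedlings (Williams) were raised in jiffy flats for roughly two weeks, then sprayed postemergence through a nozzle at 40 psi with test compound dispersed in 50/50 acetone/water containing 0.5% TWEEN®20. Treated plants were kept on greenhouse benches under normal care and visually rated on a 0-9 scale four to five weeks later.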

[3] = system: […], PRESL.; assay: Preemergence weed control under flooded paddy conditions, MOOVA (Monochoria); settings: preemergence weeds, rated three to four weeks after treatment
Summary of the method: (§1)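 Flooded paddy preemergence test: seeds/propagating organs in top 0.5 cm silt loam, water held 1.5-3 cm above soil. Dosing by pipette into flood water, aqueous/acetone 50/50 v/v, ~0.5, 0.25, 0.125, 0.063 kg/ha a.i. Greenhouse; read at 3-4 wk, 0-9 visual scale.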

[4] = system: ECHINOCHLOA ORYZOIDES (ARD.)FRITSCH; assay: Preemergence weed control under flooded paddy conditions, ECHORC (Watergrass (Calif.)); settings: preemergence weeds, rated three to four weeks after treatment
Summary of the method: as §1

[5] = system: CASSIA OBTUSIFOLIA, L.; assay: Preemergence herbicidal evaluation, CASOB (Sicklepod); settings: four to five weeks after treatment
Summary of the method: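 Seeds of various monocot and dicot plants, including sicklepod, were each mixed with potting soil and sown on roughly one inch of soil in separate pint cups for preemergence testing. Treated cups were kept on greenhouse benches, watered and maintained conventionally. Four to five weeks after treatment, each cup was visually rated on a 0-9 scale against a control.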

[6] = system: CYPERUS IRIA; assay: Preemergence weed control under flooded paddy conditions, CYPIR (Rice Flatsedge); settings: preemergence weeds, rated three to four weeks after treatment
Summary of the method: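 Seeds or propagating organs of rice flatsedge were planted in the top 0.5 cm of silt loam soil in 32 oz. plastic containers, 10.5 cm across and without drainage holes. Water was kept 1.5 to 3 cm above the soil throughout. Treated containers were kept on greenhouse benches, and herbicidal effect was visually rated on a 0-9 scale against a control.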

[7] = system: GALIUM APARINE; assay: Preemergence herbicidal evaluation, GALAP (Galium); settings: four to five weeks after treatment
Summary of the method: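 Injury scored visually (0–9; stand, vigor, malformation, size, chlorosis) versus untreated control, four to five weeks post-treatment. Application: aqueous acetone spray onto freshly planted soil cups, equivalent to about 0.125 to 0.50 kg/ha, plants then kept under standard greenhouse care.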

[8] = system: CASSIA OBTUSIFOLIA, L.; assay: Postemergence herbicidal evaluation, CASOB (Sicklepod); design: key to CASOB rating / Herbicidal effect rating, CASOB / CASOB: 0-9 visual rating scale vs untreated control; settings: for CASOB, herbicide rating (0-9): rated four to five weeks after treatment, averaged
Summary of the method: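 Two-week-old seedlings sprayed with compound in 50/50 acetone/water plus 0.5% TWEEN 20 at about 0.125–0.500 kg/ha via nozzle at 40 psi. Kept in greenhouse; rated visually 4–5 weeks after treatment on a 0–9 scale versus untreated control, averaging repeat tests.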

[9] = system: SAGITTARIA PYGMAEA, L.; assay: Preemergence weed control under flooded paddy conditions, SAGPY (Arrowhead (Pygmaea)); settings: for SAGPY: pre-weed; for SAGPY herbicidal rating: preemergence weeds, rated three to four weeks after treatment
Summary of the method: as §1

COC(=O)Cn1c(=O)n(C)c(=O)n(-c2cc(Oc3c(F)cc(C(F)(F)F)cc3Cl)ccc2Br)c1=O [Compound 2, Methyl 3-{2-bromo-5-[(2-chloro-α,α,α,6-tetrafluoro-p-tolyl)oxy]phenyl}tetrahydro-5-methyl-2,4,6-trioxo-s-triazine-1(2H)-acetate]
Herbicidal effect rating, ORYSAT ([1]; 0.063 kg/ha): 6.3 | Herbicidal effect rating, ORYSAT ([1]; 0.125 kg/ha): 6.3 | Herbicidal effect rating, ORYSAT ([1]; 0.250 kg/ha): 7.0 | Herbicidal effect rating, ORYSAT ([1]; 0.500 kg/ha): 7.5 | Herbicidal effect rating, GLXMAW ([2]; 0.063 kg/ha): 6.9 | Herbicidal effect rating, GLXMAW ([2]; 0.125 kg/ha): 7.2 | Herbicidal effect rating, GLXMAW ([2]; 0.250 kg/ha): 8.0 | Herbicidal effect rating, GLXMAW ([2]; 0.500 kg/ha): 8.3 | MOOVA herbicidal rating ([3]; Rate 0.063 kg/ha): 9.0 | MOOVA herbicidal rating ([3]; Rate 0.125 kg/ha): 9.0 | MOOVA herbicidal rating ([3]; Rate 0.250 kg/ha): 9.0 | MOOVA herbicidal rating ([3]; Rate 0.500 kg/ha): 9.0 | ECHORC herbicidal rating ([4]; Rate 0.063 kg/ha): 9.0 | ECHORC herbicidal rating ([4]; Rate 0.125 kg/ha): 9.0 | ECHORC herbicidal rating ([4]; Rate 0.250 kg/ha): 9.0 | ECHORC herbicidal rating ([4]; Rate 0.500 kg/ha): 9.0 | CASOB rating ([5]; Rate 0.125 kg/ha): 9.0 | CASOB rating ([5]; Rate 0.250 kg/ha): 9.0 | CASOB rating ([5]; Rate 0.500 kg/ha): 9.0 | CYPIR herbicidal rating ([6]; Rate 0.063 kg/ha): 9.0 | CYPIR herbicidal rating ([6]; Rate 0.125 kg/ha): 9.0 | CYPIR herbicidal rating ([6]; Rate 0.250 kg/ha): 9.0 | CYPIR herbicidal rating ([6]; Rate 0.500 kg/ha): 9.0 | GALAP rating ([7]; Rate 0.125 kg/ha): 9.0 | GALAP rating ([7]; Rate 0.250 kg/ha): 9.0 | GALAP rating ([7]; Rate 0.500 kg/ha): 9.0 | Herbicidal effect rating, CASOB ([8]; 0.063 kg/ha): 9.0 | Herbicidal effect rating, CASOB ([8]; 0.125 kg/ha): 9.0 | Herbicidal effect rating, CASOB ([8]; 0.250 kg/ha): 9.0 | Herbicidal effect rating, CASOB ([8]; 0.500 kg/ha): 9.0 | CASOB, herbicide rating (0-9) ([8]; Rate 0.125 kg/ha): 9.0 | CASOB, herbicide rating (0-9) ([8]; Rate 0.250 kg/ha): 9.0 | CASOB, herbicide rating (0-9) ([8]; Rate 0.500 kg/ha): 9.0

COC(=O)Cn1c(=O)n(C)c(=O)n(-c2cc(Oc3ccc(C(F)(F)F)cc3Cl)ccc2[N+](=O)[O-])c1=O [Compound 3, Methyl 3-{5-[(2-chloro-α,α,α-trifluoro-p-tolyl)oxy]-2-nitrophenyl}tetrahydro-5-methyl-2,4,6-trioxo-s-triazine-1(2H)-acetate]
Herbicidal effect rating, ORYSAT ([1]; 0.031 kg/ha): 4.9 | Herbicidal effect rating, ORYSAT ([1]; 0.063 kg/ha): 5.1 | Herbicidal effect rating, ORYSAT ([1]; 0.125 kg/ha): 5.7 | Herbicidal effect rating, ORYSAT ([1]; 0.250 kg/ha): 6.6 | Herbicidal effect rating, GLXMAW ([2]; 0.031 kg/ha): 4.8 | Herbicidal effect rating, GLXMAW ([2]; 0.063 kg/ha): 5.3 | Herbicidal effect rating, GLXMAW ([2]; 0.125 kg/ha): 5.9 | Herbicidal effect rating, GLXMAW ([2]; 0.250 kg/ha): 6.3 | SAGPY ([9]; Rate 0.031 kg/ha): 0.0 | SAGPY ([9]; Rate 0.063 kg/ha): 0.0 | SAGPY ([9]; Rate 0.125 kg/ha): 0.0 | SAGPY ([9]; Rate 0.250 kg/ha): 0.0 | SAGPY herbicidal rating ([9]; Rate 0.063 kg/ha): 0.0 | SAGPY herbicidal rating ([9]; Rate 0.125 kg/ha): 0.0 | SAGPY herbicidal rating ([9]; Rate 0.250 kg/ha): 0.0 | SAGPY herbicidal rating ([9]; Rate 0.500 kg/ha): 0.0 | GALAP rating ([7]; Rate 0.125 kg/ha): 7.3 | GALAP rating ([7]; Rate 0.250 kg/ha): 8.4 | GALAP rating ([7]; Rate 0.500 kg/ha): 9.0 | Herbicidal effect rating, CASOB ([8]; 0.031 kg/ha): 7.7 | Herbicidal effect rating, CASOB ([8]; 0.063 kg/ha): 8.4 | Herbicidal effect rating, CASOB ([8]; 0.125 kg/ha): 8.8 | Herbicidal effect rating, CASOB ([8]; 0.250 kg/ha): 8.4
